# Reference: patent publication US20090221664A1, “PHARMACEUTICAL COMPOSITIONS OF MUSCARINIC RECEPTOR ANTAGONISTS” (priority 2005, published 2009)
# Test system: carbachol precontracted guinea-pig isolated trachea
# Experiment: In-vitro functional assay: relaxation of carbachol precontracted guinea-pig isolated trachea by PDE-IV inhibitors with or without MRA preincubation
# Conditions: for Potentiation of relaxant activity by preincubation with C No. 66: C No. 66 at 1 nM before contraction with carbachol
# Method: Guinea Pigs (400-600 gm) were procured and trachea was removed under anesthesia (sodium pentobarbital, 300 mg/kg i.p) and immediately kept in ice-cold Krebs Henseleit buffer. Indomethacin (10 uM) was present throughout the KH buffer to prevent the formation of bronchoactive prostanoids.
# The tissue of adherent fascia was removed and cut into strips of equal size (with approx. 4-5 tracheal rings in each strip). The epithelium was removed by careful rubbing, minimizing damage to the smooth muscle. […] Opposite ends of the cut rings were tied with the help of a thread. The tissue was mounted in isolated tissue baths containing 10 ml Krebs Henseleit buffer maintained at 37° C. and bubbled with carbogen, at a basal tension of 1 gm. The buffer was changed 4-5 times for about an hour. Equilibration of the tissue was done for 1 hr for stabilization. After 1 hr, the tissue was challenged with 1 μM carbachol. This was repeated after every 2-3 washes till two similar consecutive responses were obtained. At the end of stabilization, the tissues were incubated with suboptimal dose of MRA/Vehicle for 20 minutes prior to contraction of the tissues with 1 μM carbachol. The relaxant activity of the PDE-IV inhibitor [10^−9M to 10^−4 M] on the stabilized developed tension/response was subsequently assessed. The contractile response of tissues was recorded either on Powerlab data acquisition system or on Grass polygraph (Model 7). The relaxation was expressed as percentage of maximum carbachol response and EC25 was calculated as the concentration producing 25% of the maximum relaxation to 1 μM carbachol. The percent relaxation between the treated and control tissues were compared using non-parametric unpaired t-test. A p value of <0.05 is considered to be statistically significant.
# [1] = PDE-IV inhibitor alone, concentration producing 25% of the maximum relaxation to 1 μM carbachol
# [2] = relaxation by the PDE-IV inhibitor in the presence of C No. 66 (1 nM preincubation), 1 μM carbachol
smiles,measurement,setting,value
COc1ccc(C2CNC(=O)C2)cc1OC1CCCC1 (centres unmarked) [Rolipram],Potentiation of relaxant activity by preincubation with C No. 66,,no significant potentiation
same,- Log[EC25],[1],5.25
same,EC25,[1],7.6 µM
O=C(Nc1c(Cl)cncc1Cl)c1ccc(OC(F)F)c(OCC2CC2)c1 [Roflumilast],Potentiation of relaxant activity by preincubation with C No. 66,,potentiated
same,- Log[EC25],[1],4.46
same,EC25,[1],44.2 µM
same,- Log[EC25],[2],6.25
"COc1ccc(C2=NO[C@]3(CCOC3)C2)cc1OC1CCCC1 [Compound No. 124aa, (S)-3-[3-(cyclopentyloxy)-4-methoxyphenyl]-1,7-dioxa-2-azaspiro[4.4]non-2-ene]",Potentiation of relaxant activity by preincubation with C No. 66,,potentiated
same,- Log[EC25],[1],4.40
same,EC25,[1],41.8 µM
same,- Log[EC25],[2],5.53
